{"source": "patent US20230149554A1", "about": "“TARGETED DEGRADATION OF THE ONCOGENIC MICRORNA 17-92 CLUSTER BY STRUCTURE-TARGETING LIGANDS” (University of Florida Research Foundation, Incorporated, priority 2020, published 2023)", "key": {"[1]": {"target": "bulges 5′G_U/3′CUA, 5′GGU/3′C_A and 5′GAU/3′C_A", "conditions": "previous study, cited from earlier work"}, "Cellular uptake analysis": {"assay": "Cellular uptake analysis", "format": "in vitro ADME, human", "conditions": "5 μM, 24 h, DU-145 and MDA-MB-231", "experimental": "Cellular uptake analysis. DU145 and MDA-MB-231 cells were seeded into a 96-well white clear bottom plate at 10,000 cells/well and allowed to adhere overnight. Once adhered, the cells were grown to ˜50% confluency and then treated with 2, 5, or 7 at 5 μM for 24 h while also leaving untreated wells for generation of a standard curve. This concentration was chosen to allow for adequate signal above noise. After 24 h, cells were lysed in 100 μL of RNA lysis buffer (Zymo Research) for 5 min. Compound 2, 5, or 7 were spiked into untreated samples at 100, 10, 1, 0.1, and 0.01 nM to create a standard curve of compound fluorescence. Using a Biotek FLX-800 fluorescence plate reader (excitation: 360/340; emission 460/440; sensitivity=90) the fluorescence of 2, 5, and 7 was measured. Concentrations were determined by extrapolating from the standard curves mentioned above."}, "pri-miR-17-92 cluster [2]": {"system": "pri-miR-17-92 cluster", "assay": "RT-qPCR of pri-, pre- and mature miRNAs in MDA-MB-231 cells", "format": "cell-based, human", "experimental": "Absolute quantification of pri-, pre-, and mature miRNAs. Transcripts of pre-miR-17, pre-miR-18a, and the corresponding 5p mature sequences were transcribed in vitro and purified as described above. Precursor miRNAs (1×10^14 copies) were reverse transcribed using QScript RT (Quanta bio) in a total volume of 40 μL. Mature miRNAs (1×10^14 copies) were reverse transcribed using the miScript II RT Kit (Qiagen) in a total volume of 40 μL reaction. Serial dilutions of the RT reactions (1:10) were used to create a standard curve of copy number versus Ct which was used to calculate copy numbers of each transcript in DU-145 and MDA-MB-231 cells."}, "pri-miR-17-92 cluster [3]": {"system": "pri-miR-17-92 cluster", "assay": "RT-qPCR of pri-, pre- and mature miRNAs in DU-145 cells", "format": "cell-based, human", "conditions": "DU-145, treatment with 7", "quoted_text": "RT-qPCR in DU145, MDA-MB-231, and WT-9-12 cells. DU145 cells were seeded into 12-well plates at ˜50% confluency (≈200,000 cells/well) and allowed to adhere for 12 h. After adhering, the cells were treated with compounds 2, 5, 6, or 7 (10, 100, and 500 nM) for 24 h. Total RNA was then harvested using a Zymo-Quick RNA Mini prep kit (Zymo Research) with DNase treatment according in the manufacturers protocol. Reverse transcription (RT) for mature miRNAs was done using the miScript II RT kit (Qiagen) with 200 ng of total RNA. To measure precursor and mRNA levels, RT was done using qScript (Quanta Bio) according to the manufacturers protocol on 1000 ng of total RNA. RT-qPCR was carried out on an Applied Biosystems 7900HT cycler under standard conditions (2 step PCR; 60° C. annealing/elongation, 95° C. melt) using the Power Sybr Master Mix (Applied Biosystems). […] Total RNA was extracted in a similar manner and subjected to RT-qPCR as described above. RT for precursor and mRNAs in MDA-MB-231 cells was done using the High Flex buffer in the miScript II RT kit.\nAbsolute quantification of pri-, pre-, and mature miRNAs. Transcripts of pre-miR-17, pre-miR-18a, and the corresponding 5p mature sequences were transcribed in vitro and purified as described above. Precursor miRNAs (1×10^14 copies) were reverse transcribed using QScript RT (Quanta bio) in a total volume of 40 μL. […]"}, "plasmid DNA": {"system": "plasmid DNA", "conditions": "100 nM", "quoted_text": "In vitro Bleomycin cleavage of DNA plasmid. […] Another equivalent of (NH4)2Fe(SO4)2.6H2O was added after 30 min and 60 min respectively. The mixture was loaded on 1% agarose with 6× loading dye and stained with ethidium bromide. Bands were quantified using ImageJ image analysis software."}}}
{"molecule": "CN1CCN(c2ccc(-c3ccc4nc(-c5cc(C(C)(C)C)c(OCCCC(=O)NCCCN=[N+]=[N-])c(C(C)(C)C)c5)[nH]c4c3)cc2)CC1", "note": "[Compound 1]", "values": [{"measurement": "Kd", "setting": "[1]; bulges of pre-miR-17, -18a, -20a, read-out: Kd's of 1 for the three bulges", "result": "30 to 40", "unit": "µM"}, {"measurement": "binding of 1 to RNAs with bulges mutated to GC or AU base pairs", "setting": "[1]", "result": "No binding was observed"}]}
{"molecule": "CCCN(CC(=O)N(CCC)CC(=O)N(CCC)CC(=O)N(CC(=O)NCCOCCOCCOCCOc1ccc(/C=C2\\SC(Nc3ccccc3)=C(C(=O)OCC)C2=O)cc1O)Cc1cn(CCCNC(=O)CCCOc2c(C(C)(C)C)cc(-c3nc4cc(-c5ccc(N6CCN(C)CC6)cc5)ccc4[nH]3)cc2C(C)(C)C)nn1)C(=O)CN(Cc1cn(CCCNC(=O)CCCOc2c(C(C)(C)C)cc(-c3nc4cc(-c5ccc(N6CCN(C)CC6)cc5)ccc4[nH]3)cc2C(C)(C)C)nn1)C(C)=O", "note": "[Compound 7]", "values": [{"measurement": "cellular uptake", "setting": "Cellular uptake analysis", "result": "taken up to a similar extent as 2"}, {"measurement": "decrease of pre-miR-17 levels", "setting": "pri-miR-17-92 cluster [2]; MDA-MB-231, 7 at 500 nM", "result": "31(±3) %"}, {"measurement": "decrease of pre-miR-18a levels", "setting": "pri-miR-17-92 cluster [2]; MDA-MB-231, 7 at 500 nM", "result": "19(±4) %"}, {"measurement": "decrease of pre-miR-20a levels", "setting": "pri-miR-17-92 cluster [2]; MDA-MB-231, 7 at 500 nM", "result": "36(±3) %"}, {"measurement": "pri-miR-17/92 levels", "setting": "pri-miR-17-92 cluster [2]; MDA-MB-231, 7 at 500 nM", "result": "unchanged"}, {"measurement": "levels of mature miR-17, miR-18a and miR-20a", "setting": "pri-miR-17-92 cluster [2]; MDA-MB-231, treatment with 7", "result": "reduced the levels of mature miR-17, miR-18a, and miR-20a dose dependently"}, {"measurement": "levels of the other three mature miRNAs in the cluster", "setting": "pri-miR-17-92 cluster [2]; MDA-MB-231, treatment with 7", "result": "no effect"}, {"measurement": "mature and pre-miRNA levels of the pre-miRNAs that bind 2", "setting": "pri-miR-17-92 cluster [3]", "result": "reduced levels"}, {"measurement": "pri-miR-17/92 levels", "setting": "pri-miR-17-92 cluster [3]", "result": "No effect"}]}
{"molecule": "Cc1c(N)nc([C@H](CC(N)=O)NC[C@H](N)C(N)=O)nc1C(=O)N[C@H](C(=O)N[C@H](C)[C@@H](O)[C@H](C)C(=O)N[C@H](C(=O)NCCc1nc(-c2nc(C(=O)NCCCNCCCCN)cs2)cs1)[C@@H](C)O)[C@@H](O[C@@H]1O[C@@H](CO)[C@@H](O)[C@H](O)[C@@H]1O[C@@H]1O[C@H](CO)[C@@H](O)[C@H](OC(N)=O)[C@@H]1O)c1cnc[nH]1", "note": "[Bleomycin A5]", "values": [{"measurement": "cleavage of plasmid DNA", "setting": "plasmid DNA", "result": "significantly cleaved DNA"}]}
